Results taken from PMC5914176 (Journal of medicinal chemistry, 2018).
Several values for one entry are separate records, joined by “and”; a condition that tells them apart may be missing. Equal values may be shown once. Read-outs that look alike come from different tables or passages of the source. Each block holds one compound with its values, some of them ahead of it.

Tests used:
in vitro = settings: female, CD9, mouse, microsomes, three replicates
DCN1-UBE2M interaction [1] = target: T1, DCN1-UBE2M interaction (Homo sapiens, UniProt Q96GG9); experiment: biochemical; format: binding
T1 sequence (Q96GG9 whole entry): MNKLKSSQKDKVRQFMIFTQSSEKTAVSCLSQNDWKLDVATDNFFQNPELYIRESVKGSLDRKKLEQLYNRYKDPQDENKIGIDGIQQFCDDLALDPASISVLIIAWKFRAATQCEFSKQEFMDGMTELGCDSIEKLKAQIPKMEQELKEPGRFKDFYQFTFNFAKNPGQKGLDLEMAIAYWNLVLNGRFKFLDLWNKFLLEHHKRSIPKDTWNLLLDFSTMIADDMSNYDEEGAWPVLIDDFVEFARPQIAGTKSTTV

[2] = for adverse reactions or compound-related side effects after IV dosing: 48 h monitoring after single IV dose
DCN1-UBE2M interaction [3] = target: T1, DCN1-UBE2M interaction; settings: previously reported potency; cited from earlier work
HCC95 cells [4] = settings: cited from earlier work
[5] = Liver microsomal stability; settings: for t(1/2): mouse microsomes, 0.8 μM, mean ± SD, three replicates
in vivo [6] = experiment: in vivo; design: species or system mice
[7] = format: in vivo, mice; settings: 14 days, 200 mg/kg oral QD or BID
HCC95 cells [8] = experiment: Western blot for cellular neddylation and substrate levels; format: cell-based
[9] = tested on: DCN1/2 over remaining human DCN isoforms; settings: cited from earlier work
HCC95 cells [10] = settings: cited from earlier work; remark: listed apart in the source
in vivo [11] = settings: mouse, iv, 1.5 mg/kg, t1/2 (IV half-life), IV 0.5, 1.0 and 1.5 mg/kg, plasma
[12] = pH 7.4, CLint’, Table 3, mean ± SD
[13] = pH 7.4, CLint’, Table 2, mean ± SD
[14] = pH 7.4, CLint, Table 1, mean ± SD
[15] = pH 7.4, CLint’, Table 5, mean ± SD
[16] = female, CD9, mouse, microsomes, pH 7.4
[17] = IC50, rounded values in running text

- CLint scaled at 0.8 µM (in vitro; [12]): 291 ± 22.4 mL/min/kg
Structure (SMILES): CCCC(C)N1CCC(N(Cc2ccccc2)C(=O)Nc2cc(F)cc(C(F)(F)F)c2)CC1 (stereo not shown) [Compound 36]

- CLint scaled at 0.8 μM (in vitro; [12]): ≥ 500 mL/min/kg
Structure (SMILES): CCCC(C)N1CCC(N(Cc2ccccc2)C(=O)Nc2ccc3c(c2)CCC3)CC1 (stereo not shown) [Compound 43]

- CLint scaled at 0.8 μM (in vitro; [13]): ≥ 500 mL/min/kg
Structure (SMILES): CCCC(C)N1CCC(N(Cc2ccccc2)C(=O)Nc2cccc(F)c2)CC1 (stereo not shown) [Compound 21]

- CLint scaled at 0.8 µM (in vitro; [14]): 91.4 ± 8.12 mL/min/kg
Structure (SMILES): O=C(Nc1cccc(C(F)(F)F)c1)NC1CCN(Cc2ccccc2)CC1 [Compound 2]

- CLint scaled at 0.8 µM (in vitro; [12]): 151 ± 10.2 mL/min/kg
Structure (SMILES): CCCC(C)N1CCC(N(Cc2ccccc2)C(=O)Nc2ccc(Cl)c([N+](=O)[O-])c2)CC1 (stereo not shown) [Compound 31]

- CLint scaled at 0.8 μM (in vitro; [15]): ≥ 500 mL/min/kg
Structure (SMILES): CCCCN1CCC(N(Cc2ccccc2)C(=O)Nc2cccc(Cl)c2)CC1 [Compound 63]

Structure (SMILES): CCCC(C)N1CCC(N(Cc2ccccc2)C(=O)Nc2cccc(C(F)(F)F)c2)CC1 (stereo not shown) [Compound 7, 1-benzyl-1-(1-(pentan-2-yl)piperidin-4-yl)-3-(3-(trifluoromethyl)phenyl)urea]
- fold more potent than initial hit (compound 2) (DCN1-UBE2M interaction [1]): 100 fold
- adverse reactions or compound-related side effects after IV dosing [2]: We did not observe any adverse reactions or compound-related side effects
- t1/2 (IV half-life) ([2]; IV 0.5, 1.0 and 1.5 mg/kg, plasma): 8.4 to 12 min
- IC50 (DCN1-UBE2M interaction [3]): 60 nM
- steady-state levels of cullin neddylation (HCC95 cells [4]; HCC95 cells): suppresses steady-state levels of cullin neddylation
- CLint scaled at 0.8 μM (in vitro; [14]): 165 ± 25.9 mL/min/kg
- t(1/2) ([5]; Table 1): 0.327 ± 0.010 h

Structure (SMILES): CCCC(C)N1CCC(N(Cc2ccccc2)C(=O)Nc2ccc(C#N)c(C(F)(F)F)c2)CC1 (stereo not shown) [Compound 34]
- CLint scaled at 0.8 µM [5, 16]: 61.3 ± 3.49 mL/min/kg
- CLint scaled at 0.8 μM [5, 16]: 60 mL/min/kg

- CLint scaled at 0.8 µM (in vitro; [14]): 361 ± 45.1 mL/min/kg
Structure (SMILES): CCCCN1CCC(N(Cc2ccccc2)C(=O)Nc2cccc(C(F)(F)F)c2)CC1 [Compound 6]

Structure (SMILES): CCCCN1CCC(N(Cc2ccccc2)C(=O)Nc2ccc(Cl)c(Cl)c2)CC1 [Compound 67, 1-benzyl-1-(1-butylpiperidin-4-yl)-3-(3,4-dichlorophenyl)urea]
- adverse reaction after oral administration (in vivo [6]; 48 h monitoring, any dose tested): did not cause a significant adverse reaction at any dose tested
- half-life (in vivo [6]; mouse, in vivo, po, 200 mg/kg): 3 to 5 h
- adverse reactions or compound-related side effects, repeat dosing [7]: no adverse reactions or compound-related side effects were observed
- gross substrate stabilization (HCC95 cells [8]; HCC95): does not elicit gross substrate stabilization
- steady-state levels of neddylated CUL1 and CUL3 (HCC95 cells [8]; HCC95, 48 hours, dosing at T = 0 and T = 24 hr): inhibits steady-state levels of neddylated CUL1 and CUL3 in a dose-dependent manner
- levels of CUL1/CUL3 substrates NRF2 and p27 (HCC95 cells [8]; HCC95, 48 hours, longer exposures): dose-dependent increase
- fold lower clearance in mouse microsomes than compound 7: six-fold
- adverse reactions or compound-related side effects after IV dosing [2]: failed to induce any measureable adverse reactions
- steady-state levels of neddylated cullins (selectivity among cullins) (HCC95 cells [4]; HCC95): selectively reduces steady-state levels of neddylated CUL1 and CUL3 while CUL2, CUL4A, and CUL5 are relatively unaffected
- selectivity for DCN1/2 over other DCN isoforms [9]: high level of selectivity for inhibition of DCN1/2 over the highly homologous remaining human DCN isoforms
- anchorage-independent growth (HCC95 cells [10]): inhibits the anchorage-independent growth of HCC95 cells
- half-life (in vivo [11]): 3 to 4 h
- CLint scaled at 0.8 μM (in vitro; [15]): 25.6 ± 4.08 mL/min/kg
- t(1/2) ([5]; Table 5): 2.11 ± 0.336 h
- bioavailability predicted from in vitro clearance (Fin vitro) ([5]; calculated by 1 - CL/Qh): 78%

- CLint scaled at 0.8 µM (in vitro; [13]): 256 ± 22.4 mL/min/kg
Structure (SMILES): CCCC(C)N1CCC(N(Cc2ccccc2)C(=O)Nc2cccc(C(C)C)c2)CC1 (stereo not shown) [Compound 23]

- CLint scaled at 0.8 µM (in vitro; [15]): 38.7 ± 1.63 mL/min/kg
Structure (SMILES): CCCCN1CCC(N(Cc2ccccc2)C(=O)Nc2ccc(F)c(Cl)c2)CC1 [Compound 72]

- CLint scaled at 0.8 µM (in vitro; [15]): 349 ± 22.5 mL/min/kg
Structure (SMILES): CCCCN1CCC(N(Cc2ccccc2)C(=O)Nc2cccc(C#N)c2)CC1 [Compound 66]

Structure (SMILES): CCCC(C)N1CCC(N(Cc2ccccc2)C(=O)Nc2ccc(Br)cc2)CC1 (stereo not shown) [Compound 26]
- IC50 (DCN1-UBE2M interaction [1]; [17]): ~60 nM
- CLint scaled at 0.8 µM (in vitro; [13]): 148 ± 7.63 mL/min/kg

Structure (SMILES): CCCC(C)N1CCC(N(Cc2ccccc2)C(=O)Nc2ccc(I)cc2)CC1 (stereo not shown) [Compound 27]
- IC50 (DCN1-UBE2M interaction [1]; [17]): ~60 nM and 50 nM
- CLint scaled at 0.8 µM (in vitro; [13]): 115 ± 2.78 mL/min/kg

- CLint scaled at 0.8 µM (in vitro; [12]): 240 ± 24 mL/min/kg
Structure (SMILES): CCCC(C)N1CCC(N(Cc2ccccc2)C(=O)Nc2ccc3ncsc3c2)CC1 (stereo not shown) [Compound 42]

- CLint scaled at 0.8 µM (in vitro; [13]): 323 ± 4.46 mL/min/kg
Structure (SMILES): CCCC(C)N1CCC(N(Cc2ccccc2)C(=O)Nc2ccc(C(C)C)cc2)CC1 (stereo not shown) [Compound 29]

- CLint scaled at 0.8 µM (in vitro; [15]): 27.9 ± 2.71 mL/min/kg
Structure (SMILES): CCCCN1CCC(N(Cc2ccccc2)C(=O)Nc2ccc(F)c(C(F)(F)F)c2)CC1 [Compound 70]

- CLint scaled at 0.8 µM (in vitro; [14]): 318 ± 29.6 mL/min/kg
Structure (SMILES): CCCN1CCC(N(Cc2ccccc2)C(=O)Nc2cccc(C(F)(F)F)c2)CC1 [Compound 4]

- CLint scaled at 0.8 μM (in vitro; [14]): > 500 mL/min/kg
Structure (SMILES): O=C(Nc1cccc(C(F)(F)F)c1)N(Cc1ccccc1)C1CCN(CC2CC2)CC1 [Compound 5]

- CLint scaled at 0.8 μM (in vitro; [12]): < 13.5 mL/min/kg
Structure (SMILES): CCCC(C)N1CCC(N(Cc2ccccc2)C(=O)Nc2ccc(C(F)(F)F)nc2C)CC1 (stereo not shown) [Compound 41]

- CLint scaled at 0.8 μM (in vitro; [14]): > 500 mL/min/kg
Structure (SMILES): CCCN1CCC(N(Cc2ccc3c(c2)OCO3)C(=O)Nc2cccc(C(F)(F)F)c2)CC1 [Compound 1]

- CLint scaled at 0.8 µM (in vitro; [13]): 125 ± 3.17 mL/min/kg
Structure (SMILES): CCCC(C)N1CCC(N(Cc2ccccc2)C(=O)Nc2ccc(C(F)(F)F)cc2)CC1 (stereo not shown) [Compound 24]

Structure (SMILES): CCCC(C)N1CCC(N(Cc2ccccc2)C(=O)Nc2ccc(Cl)cc2)CC1 (stereo not shown) [Compound 25]
- IC50 (DCN1-UBE2M interaction [1]; IC50): 100 nM
- CLint scaled at 0.8 µM (in vitro; [13]): 156 ± 10.7 mL/min/kg

- CLint scaled at 0.8 µM (in vitro; [14]): 220 ± 12.8 mL/min/kg
Structure (SMILES): CCCCN1CCC(N(Cc2ccc3c(c2)OCO3)C(=O)Nc2cccc(C(F)(F)F)c2)CC1 [Compound 8]

- CLint scaled at 0.8 µM (in vitro; [15]): 305 ± 4.02 mL/min/kg
Structure (SMILES): CCCCN1CCC(N(Cc2ccccc2)C(=O)Nc2cccc(C)c2)CC1 [Compound 64]

- CLint scaled at 0.8 µM (in vitro; [12]): 66.9 ± 5.15 mL/min/kg
Structure (SMILES): CCCC(C)N1CCC(N(Cc2ccccc2)C(=O)Nc2cc(C(F)(F)F)ccc2F)CC1 (stereo not shown) [Compound 38]

Structure (SMILES): CCCCN1CCC(N(Cc2ccccc2)C(=O)Nc2cc(F)cc(C(F)(F)F)c2)CC1 [Compound 47]
- fold reduction in biochemical potency versus compound 7 (DCN1-UBE2M interaction [1]): five-fold
- CLint scaled at 0.8 µM (in vitro; [15]): 22.3 ± 4.88 mL/min/kg

- CLint scaled at 0.8 µM (in vitro; [14]): 434 ± 21.1 mL/min/kg
Structure (SMILES): CC(C)(C)N1CCC(N(Cc2ccc3c(c2)OCO3)C(=O)Nc2cccc(C(F)(F)F)c2)CC1 [Compound 9]

- CLint scaled at 0.8 µM (in vitro; [13]): 356 ± 31.9 mL/min/kg
Structure (SMILES): CCCC(C)N1CCC(N(Cc2ccccc2)C(=O)Nc2ccc(C)cc2)CC1 (stereo not shown) [Compound 28]

- CLint scaled at 0.8 µM (in vitro; [14]): 199 ± 9.99 mL/min/kg
Structure (SMILES): CCCN1CCC(N(Cc2cc(F)cc(C(F)(F)F)c2)C(=O)Nc2cccc(C(F)(F)F)c2)CC1 [Compound 10]

- CLint scaled at 0.8 µM (in vitro; [14]): 394 ± 55.2 mL/min/kg
Structure (SMILES): CCCN1CCC(N(Cc2ccco2)C(=O)Nc2cccc(C(F)(F)F)c2)CC1 [Compound 3]

- CLint scaled at 0.8 μM (in vitro; [15]): ≥ 500 mL/min/kg
Structure (SMILES): CCCCN1CCC(N(Cc2ccccc2)C(=O)Nc2cccc(C(F)(F)F)c2F)CC1 [Compound 69]

- CLint scaled at 0.8 µM (in vitro; [12]): 230 ± 13.1 mL/min/kg
Structure (SMILES): CCCC(C)N1CCC(N(Cc2ccccc2)C(=O)Nc2cc(Cl)ccc2F)CC1 (stereo not shown) [Compound 39]

- CLint scaled at 0.8 μM (in vitro; [13]): ≥ 500 mL/min/kg
Structure (SMILES): CCCC(C)N1CCC(N(Cc2ccccc2)C(=O)Nc2cccc(Cl)c2)CC1 (stereo not shown) [Compound 22]

- CLint scaled at 0.8 µM (in vitro; [12]): 302 ± 15.2 mL/min/kg
Structure (SMILES): CCCC(C)N1CCC(N(Cc2ccccc2)C(=O)Nc2ccc(F)c(F)c2)CC1 (stereo not shown) [Compound 32]

- CLint scaled at 0.8 µM (in vitro; [15]): 189 ± 14.5 mL/min/kg
Structure (SMILES): CCCCN1CCC(N(Cc2ccccc2)C(=O)Nc2ccc(C)c(Cl)c2)CC1 [Compound 71]

- CLint scaled at 0.8 µM (in vitro; [12]): 381 ± 31.9 mL/min/kg
Structure (SMILES): CCCC(C)N1CCC(N(Cc2ccccc2)C(=O)Nc2ccc(C)c(F)c2)CC1 (stereo not shown) [Compound 33]

- CLint scaled at 0.8 µM (in vitro; [12]): 145 ± 9.51 mL/min/kg
Structure (SMILES): CCCC(C)N1CCC(N(Cc2ccccc2)C(=O)Nc2ccc(F)c(C(F)(F)F)c2)CC1 (stereo not shown) [Compound 35]
